We go through 6 compounds from patent US20250382344A1, “Soluble GLP1/GIP/NPY2 Receptor Triple Agonists” (Boehringer Ingelheim International GmH, priority 2024, published 2025).

For orientation: solubility means how much of the substance goes into solution per volume.

One series can be described thus: Solubility in 0.1 M phosphate buffer at pH 7. It counts as physicochemical. The conditions noted are these: 0.1 M phosphate buffer at pH 7, 10 mg/mL final peptide concentration, shaking 2 hours at room temperature, peptides as TFA-salts; measured sample pH 6.5-7.0. On the procedure: Peptides (as TFA-salts) were weighed out in a filter unit (Mini-UniPrep Syringeless Filter 0.45 μm, Whatman PVDF), and 0.1 M phosphate buffer at pH 7 was added to achieve 10 mg/mL final peptide concentration. The peptides were dissolved by shaking the filter units horizontally at 600 rpm for 2 hours at room temperature. Samples were then filtered to remove any insoluble particles. Controls were prepared by weighing out the corresponding peptide solid material and dissolving it in an appropriate vehicle (e.g. ACN:H2O) to a final concentration of 1 mg/mL. Both, the control and sample were analyzed by reversed phase chromatography. The area under the peak of the sample was compared to the control and the solubility was calculated based on that ratio. The pH was measured and recorded for each sample.
For the compound `CC[C@H](C)[C@H](NC(=O)[C@H](CC(C)C)NC(=O)[C@H](Cc1c[nH]cn1)NC(=O)[C@H](CCCNC(=N)N)NC(=O)[C@@H](NC(=O)[C@H](Cc1ccccc1)NC(=O)[C@H](C)NC(=O)C(C)(C)NC(=O)[C@H](CCC(=O)O)NC(=O)[C@H](C)NC(=O)[C@H](CCC(N)=O)NC(=O)[C@H](CCCCN)NC(=O)[C@H](CCC(=O)O)NC(=O)[C@H](CC(C)C)NC(=O)C(C)(C)NC(=O)[C@@H](NC(=O)[C@H](CO)NC(=O)[C@H](Cc1ccc(O)cc1)NC(=O)[C@H](CC(=O)O)NC(=O)[C@H](CO)NC(=O)[C@@H](NC(=O)[C@H](Cc1ccccc1)NC(=O)[C@@H](NC(=O)CNC(=O)[C@H](CCC(=O)O)NC(=O)C(C)(C)NC(=O)[C@@H](N)Cc1ccc(O)cc1)[C@@H](C)O)[C@@H](C)O)[C@@H](C)CC)C(C)C)C(=O)N[C@@H](CC(N)=O)C(=O)N[C@@H](CCCCNC(=O)[C@@H](N)CCCCNC(=O)[C@@H](N)CCCCNC(=O)CC[C@H](NC(=O)CC[C@H](NC(=O)CC[C@H](NC(=O)CC[C@H](NC(=O)CC[C@H](NC(=O)CC[C@H](NC(=O)CCCCCCCCCCCCCCCCCCC(=O)O)C(=O)O)C(=O)O)C(=O)O)C(=O)O)C(=O)O)C(=O)O)C(=O)NC(C)(C)C(=O)N[C@H](C(=O)N[C@@H](CCCNC(=N)N)C(=O)N[C@@H](CCC(N)=O)C(=O)N[C@@H](CCCNC(=N)N)C(=O)N[C@@H](Cc1ccc(O)cc1)C(N)=O)[C@@H](C)O` [Compound 82, Y-Aib-E-G-T-F-T-S-D-Y-S-I-Aib-L-E-K-Q-A-E-Aib-A-F-V-R-H-L-I-N-K(1,3)-Aib-T-R-Q-R-Y-NH2.C20DA-gGlu-gGlu-gGlu-gGlu-gGlu-gGlu-eLys-eLys(1,2)], the solubility at 2 h came out at 9000 µg/mL.

Turning to `CC[C@H](C)[C@H](NC(=O)[C@H](CC(C)C)NC(=O)[C@H](Cc1c[nH]cn1)NC(=O)[C@H](CCCNC(=N)N)NC(=O)[C@@H](NC(=O)[C@H](Cc1ccccc1)NC(=O)[C@H](C)NC(=O)C(C)(C)NC(=O)[C@H](CCC(N)=O)NC(=O)[C@H](C)NC(=O)[C@H](CCC(N)=O)NC(=O)[C@H](CCCCN)NC(=O)[C@H](CCC(=O)O)NC(=O)[C@H](CC(C)C)NC(=O)C(C)(C)NC(=O)[C@@H](NC(=O)[C@H](CO)NC(=O)[C@H](Cc1ccc(O)cc1)NC(=O)[C@H](CC(=O)O)NC(=O)[C@H](CO)NC(=O)[C@@H](NC(=O)[C@H](Cc1ccccc1)NC(=O)[C@@H](NC(=O)[C@H](C)NC(=O)[C@H](CCC(=O)O)NC(=O)C(C)(C)NC(=O)[C@@H](N)Cc1ccc(O)cc1)[C@@H](C)O)[C@@H](C)O)[C@@H](C)CC)C(C)C)C(=O)N[C@@H](CC(N)=O)C(=O)N[C@@H](CCCCNC(=O)[C@@H](N)CCCCNC(=O)CC[C@H](NC(=O)CC[C@H](NC(=O)CC[C@H](NC(=O)CC[C@H](NC(=O)CC[C@H](NC(=O)CC[C@H](NC(=O)CCCCCCCCCCCCCCCCC(=O)O)C(=O)O)C(=O)O)C(=O)O)C(=O)O)C(=O)O)C(=O)O)C(=O)NC(C)(C)C(=O)N[C@H](C(=O)N[C@@H](CCCNC(=N)N)C(=O)N[C@@H](CCC(N)=O)C(=O)N[C@@H](CCCNC(=N)N)C(=O)N[C@@H](Cc1ccc(O)cc1)C(N)=O)[C@@H](C)O` [Compound 93, Y-Aib-E-A-T-F-T-S-D-Y-S-I-Aib-L-E-K-Q-A-Q-Aib-A-F-V-R-H-L-I-N-K(1,3)-Aib-T-R-Q-R-Y-NH2.C18DA-gGlu-gGlu-gGlu-gGlu-gGlu-gGlu-eLys(1,2)], the solubility at 2 h came out at 10000 µg/mL.

With `CC[C@H](C)[C@H](NC(=O)[C@H](CC(C)C)NC(=O)[C@H](Cc1c[nH]cn1)NC(=O)[C@H](CCCNC(=N)N)NC(=O)[C@@H](NC(=O)[C@H](Cc1ccccc1)NC(=O)[C@H](C)NC(=O)C(C)(C)NC(=O)[C@H](CCC(N)=O)NC(=O)[C@H](C)NC(=O)[C@H](CCC(N)=O)NC(=O)CNC(=O)[C@H](CCC(=O)O)NC(=O)[C@H](CC(C)C)NC(=O)C(C)(C)NC(=O)[C@@H](NC(=O)[C@H](CO)NC(=O)[C@H](Cc1ccc(O)cc1)NC(=O)[C@H](CC(=O)O)NC(=O)[C@H](CO)NC(=O)[C@@H](NC(=O)[C@H](Cc1ccccc1)NC(=O)[C@@H](NC(=O)CNC(=O)[C@H](CCC(=O)O)NC(=O)C(C)(C)NC(=O)[C@@H](N)Cc1ccc(O)cc1)[C@@H](C)O)[C@@H](C)O)[C@@H](C)CC)C(C)C)C(=O)N[C@@H](CC(N)=O)C(=O)N[C@@H](CCCCNC(=O)[C@@H](N)CCCCNC(=O)CC[C@H](NC(=O)CC[C@H](NC(=O)CC[C@H](NC(=O)CC[C@H](NC(=O)CC[C@H](NC(=O)CC[C@H](NC(=O)CCCCCCCCCCCCCCCCC(=O)O)C(=O)O)C(=O)O)C(=O)O)C(=O)O)C(=O)O)C(=O)O)C(=O)NC(C)(C)C(=O)N[C@H](C(=O)N[C@@H](CCCNC(=N)N)C(=O)N[C@@H](CCC(N)=O)C(=O)N[C@@H](CCCNC(=N)N)C(=O)N[C@@H](Cc1ccc(O)cc1)C(N)=O)[C@@H](C)O` [Compound 95, Y-Aib-E-G-T-F-T-S-D-Y-S-I-Aib-L-E-G-Q-A-Q-Aib-A-F-V-R-H-L-I-N-K(1,3)-Aib-T-R-Q-R-Y-NH2.C18DA-gGlu-gGlu-gGlu-gGlu-gGlu-gGlu-eLys(1,2)], the solubility at 2 h was determined as 4400 µg/mL.

The series is the same for the next values; noted with them: 0.1 M phosphate buffer at pH 7, 10 mg/mL final peptide concentration, shaking 2 hours at room temperature, peptides as TFA-salts; measured sample pH 6.5-7.0; read-out: Solubility.
`CC[C@H](C)[C@H](NC(=O)[C@H](CC(C)C)NC(=O)[C@H](Cc1c[nH]cn1)NC(=O)[C@H](CCCNC(=N)N)NC(=O)[C@@H](NC(=O)[C@H](Cc1ccccc1)NC(=O)[C@H](C)NC(=O)C(C)(C)NC(=O)[C@H](CCC(N)=O)NC(=O)[C@H](C)NC(=O)[C@H](CCC(N)=O)NC(=O)[C@H](CCC(=O)O)NC(=O)[C@H](CC(=O)O)NC(=O)[C@H](CC(C)C)NC(=O)C(C)(C)NC(=O)[C@@H](NC(=O)[C@H](CO)NC(=O)[C@H](Cc1ccc(O)cc1)NC(=O)[C@H](CC(=O)O)NC(=O)[C@H](CO)NC(=O)[C@@H](NC(=O)[C@H](Cc1ccccc1)NC(=O)[C@@H](NC(=O)CNC(=O)[C@H](CCC(=O)O)NC(=O)C(C)(C)NC(=O)[C@@H](N)Cc1ccc(O)cc1)[C@@H](C)O)[C@@H](C)O)[C@@H](C)CC)C(C)C)C(=O)N[C@@H](CC(N)=O)C(=O)N[C@@H](CCCCNC(=O)[C@@H](N)CCCCNC(=O)CC[C@H](NC(=O)[C@H](CCC(=O)O)NC(=O)CC[C@H](NC(=O)CC[C@H](NC(=O)CC[C@H](NC(=O)CC[C@H](NC(=O)CCCCCCCCCCCCCCCCC(=O)O)C(=O)O)C(=O)O)C(=O)O)C(=O)O)C(=O)O)C(=O)NC(C)(C)C(=O)N[C@H](C(=O)N[C@@H](CCCNC(=N)N)C(=O)N[C@@H](CCC(N)=O)C(=O)N[C@@H](CCCNC(=N)N)C(=O)N[C@@H](Cc1ccc(O)cc1)C(N)=O)[C@@H](C)O` [Compound 40, Y-Aib-E-G-T-F-T-S-D-Y-S-I-Aib-L-D-E-Q-A-Q-Aib-A-F-V-R-H-L-I-N-K(1,3)-Aib-T-R-Q-R-Y-NH2.C18DA-gGlu-gGlu-gGlu-gGlu-gGlu-gGlu-eLys(1,2)]: the solubility worked out at 9500 µg/mL.

Take `CC[C@H](C)[C@H](NC(=O)[C@H](CC(C)C)NC(=O)[C@H](Cc1c[nH]cn1)NC(=O)[C@H](CCCNC(=N)N)NC(=O)[C@@H](NC(=O)[C@H](Cc1ccccc1)NC(=O)[C@H](CCC(=O)O)NC(=O)C(C)(C)NC(=O)[C@H](CCC(N)=O)NC(=O)[C@H](C)NC(=O)[C@H](CCC(N)=O)NC(=O)[C@H](CCCCN)NC(=O)[C@H](CCC(=O)O)NC(=O)[C@H](CC(C)C)NC(=O)C(C)(C)NC(=O)[C@@H](NC(=O)[C@H](CO)NC(=O)[C@H](Cc1ccc(O)cc1)NC(=O)[C@H](CC(=O)O)NC(=O)[C@H](CO)NC(=O)[C@@H](NC(=O)[C@H](Cc1ccccc1)NC(=O)[C@@H](NC(=O)CNC(=O)[C@H](CCC(=O)O)NC(=O)C(C)(C)NC(=O)[C@@H](N)Cc1ccc(O)cc1)[C@@H](C)O)[C@@H](C)O)[C@@H](C)CC)C(C)C)C(=O)N[C@@H](CC(N)=O)C(=O)N[C@@H](CCCCNC(=O)CCCCCNC(=O)CC[C@H](NC(=O)[C@H](CCC(=O)O)NC(=O)CC[C@H](NC(=O)CC[C@H](NC(=O)CC[C@H](NC(=O)CCCCCCCCCCCCCCCCC(=O)O)C(=O)O)C(=O)O)C(=O)O)C(=O)O)C(=O)N[C@@H](CC(C)C)C(=O)N[C@H](C(=O)N[C@@H](CCCNC(=N)N)C(=O)N[C@@H](CCC(N)=O)C(=O)N[C@@H](CCCNC(=N)N)C(=O)N[C@@H](Cc1ccc(O)cc1)C(N)=O)[C@@H](C)O` [Compound 45, Y-Aib-E-G-T-F-T-S-D-Y-S-I-Aib-L-E-K-Q-A-Q-Aib-E-F-V-R-H-L-I-N-K(1,3)-L-T-R-Q-R-Y-NH2.C18DA-gGlu-gGlu-gGlu-gGlu-gGlu-AHX(1,2)]: the solubility is 5000 µg/mL.

`CC[C@H](C)[C@H](NC(=O)[C@H](CC(C)C)NC(=O)[C@H](Cc1c[nH]cn1)NC(=O)[C@H](CCCNC(=N)N)NC(=O)[C@@H](NC(=O)[C@H](Cc1ccccc1)NC(=O)[C@H](C)NC(=O)C(C)(C)NC(=O)[C@H](CCC(N)=O)NC(=O)[C@H](C)NC(=O)[C@H](CCC(N)=O)NC(=O)[C@H](CCCCN)NC(=O)[C@H](CCC(=O)O)NC(=O)[C@H](CC(C)C)NC(=O)C(C)(C)NC(=O)[C@@H](NC(=O)[C@H](CO)NC(=O)[C@H](Cc1ccc(O)cc1)NC(=O)[C@H](CC(=O)O)NC(=O)[C@H](CO)NC(=O)[C@@H](NC(=O)[C@H](Cc1ccccc1)NC(=O)[C@@H](NC(=O)CNC(=O)[C@H](CCC(=O)O)NC(=O)C(C)(C)NC(=O)[C@@H](N)Cc1ccc(O)cc1)[C@@H](C)O)[C@@H](C)O)[C@@H](C)CC)C(C)C)C(=O)N[C@@H](CC(N)=O)C(=O)N[C@@H](CCCCNC(=O)CC[C@H](NC(=O)CC[C@H](NC(=O)[C@@H](N)CCCCNC(=O)CC[C@H](NC(=O)CC[C@H](NC(=O)CC[C@H](NC(=O)CC[C@H](NC(=O)CCCCCCCCCCCCCCCCCCC(=O)O)C(=O)O)C(=O)O)C(=O)O)C(=O)O)C(=O)O)C(=O)O)C(=O)NC(C)(C)C(=O)N[C@H](C(=O)N[C@@H](CCCNC(=N)N)C(=O)N[C@@H](CCC(N)=O)C(=O)N[C@@H](CCCNC(=N)N)C(=O)N[C@@H](Cc1ccc(O)cc1)C(N)=O)[C@@H](C)O` [Compound 52, Y-Aib-E-G-T-F-T-S-D-Y-S-I-Aib-L-E-K-Q-A-Q-Aib-A-F-V-R-H-L-I-N-K(1,3)-Aib-T-R-Q-R-Y-NH2.C20DA-gGlu-gGlu-gGlu-gGlu-eLys-gGlu-gGlu(1,2)]: the solubility worked out at 9400 µg/mL.
